Measured values from patent US6878713B2, “Generation triple-targeting, chiral, broad-spectrum antimicrobial 7-substituted piperidino-quinolone carboxylic acid derivatives, their preparation, compositions and use as medicaments” (Wockhardt Limited, priority 2001, dated 2005).
Values after ≈ are worked out from the molar mass of the structure shown. Where two headings read alike, the source gives them in different places.

Tests used:
[1] = system: Fluoroquinolone-Resistant Strains; assay: In-vitro antimicrobial test (MIC, two-fold serial agar dilution, NCCLS), Table 18; type: cell-based
Method: (§1) The test method was in accordance with the standard NCCLS protocol (Methods for Dilution Antimicrobial Susceptibility Tests for Bacteria that grow Aerobicially, Approved Standards, M7-A5, Fifth Edition, January 2000).
(§2) The antibacterial activities (minimum inhibitory concentration: MIC, […]) were determined by using the two-fold serial agar dilution method recommended by NCCLS. The media used for preculture and main culture were Tryptic Soya broth (Difco) and Mueller Hinton medium (Difco), respectively. The Mueller Hinton agar was supplemented with 5% sheep blood for streptococci. Overnight cultures were diluted with buffered saline (pH 7.2) to the final cell density of 5×10^6-10^7 CFU/ml, and each bacterial suspension was applied with a replicator (Denley's multipoint inoculator, UK) onto a series of Mueller-Hinton agar plates containing antibacterial agents at various concentrations. Final inoculum was approximately 10^4 CFU/spot. The plates were incubated for 18 hrs at 37° C. The MIC was defined as the lowest concentration of an antibacterial agent that inhibits the development of visible microbial growth on agar.

[2] = system: MRSA 5027; assay: Resistance to resistance development (sequential passages through drug-containing media); type: cell-based; conditions: Staphylococcus aureus
[3] = system: Multidrug-Resistant (MDR) Pneumococcal Infections; assay: In-vivo antimicrobial test, systemic infection model (mouse septicemia), Table 22; parameters: species or system Swiss male and female mice; conditions: Streptococcus pneumoniae, po, oral dosing 1 hour and 5 hours post-infection, survival on day 7, strain resistant to β-lactams, macrolides and fluoroquinolones, read-out: ED50 p.o., MDR S. pneumoniae 718
Method: The in vivo efficacy was studied through mouse septicemia model of infection in Swiss male and female mice (4 weeks old, 20+2 g weight) using 6 animals in each group. Infective organisms were inoculated intraperitonially. Compound were administered by oral route 1 hour and 5 hours post-infection. […] Appropriate comparators were included in the study.

[4] = system: J 744 (mouse macrophage); assay: Cytotoxicity test (Alamar blue), J 744 cells, Table 23; type: cell-based; conditions: 3 hrs drug exposure, further 96 hrs incubation
Method: Compounds were evaluated for their cytotoxic potential against two celllines viz. […] Cytotoxic drugs inhibit this reaction resulting into blue coloured well. Minimum drug concentration inhibiting Alamar blue color change i.e. resulting into blue coloured wells for a given drug is considered cytotoxic concentration.

[5] = system: V79 (Chinese Hamster Lung); assay: Cytotoxicity test (Alamar blue), V79 cells, Table 23; type: cell-based; conditions: 3 hrs drug exposure, further 96 hrs incubation
Method: Compounds were evaluated for their cytotoxic potential against two […] viz. […] Cells were grown for 3-4days in a culture flask using D-MEM (Dulbecco's Modified Eagle. […] Freshly grown cells were distributed in microtiter plates at a cell density of 10^5-10^6 cells/well and allowed to […] form monolayer by incubating the microtiter plate at […] for 24 hrs. […] Following 3 hrs. of drug exposure, cell were washed with D-MEM and incubated further for 96 hrs. Cytotoxic effects of drugs were monitored through daily microscopic observation and by ascertaining the metabolic status through redox indicator Alamar blue. Healthy actively metabolising cells bring about colour change of Alamar blue from blue to pink within an overnight incubation. Cytotoxic drugs inhibit this reaction resulting into blue coloured well. Minimum drug concentration inhibiting Alamar blue color change i.e. resulting into blue coloured wells for a given drug is considered cytotoxic concentration.

[6] = system: Fluoroquinolone Sensitive Strains; assay: In-vitro antimicrobial test (MIC, two-fold serial agar dilution, NCCLS), Table 17; type: cell-based
[7] = system: Trovafloxacin-Resistant and Vancomycin-Resistant Enterococci; assay: In-vitro antimicrobial test (MIC, two-fold serial agar dilution, NCCLS), Table 19; type: cell-based
From the text: The comparative antimicrobial activity of representative compounds, of the invention and reference compounds against various sensitive and resistant microorganisms is given in Tables 17 to 20. The test method was in accordance with the standard NCCLS protocol (Methods for Dilution Antimicrobial Susceptibility Tests for Bacteria that grow Aerobicially, Approved Standards, M7-A5, Fifth Edition, January 2000).
as §2

[8] = system: Clinical Isolate MRSA 5076 with Mutations in DNA Gyrase and Topoisomerase IV as well as bearing an Efflux Pump; assay: microbe, parasite or virus in culture; type: cell-based; conditions: for MIC: Staphylococcus aureus, ATCC 25293 / MRSA, read-out: MICs, S. aureus (sensitive) ATCC 25293
Method: as §1, §2

[9] = Phototoxicity (oral dose, UVA exposure, ear erythema and oedema); type: in vivo; conditions: Swiss Albino mice, UVA 4 hours for 4 consecutive days
Method: The stock solutions for different doses were prepared freshly on the day of experimentation. Appropriate concentration of each dose was chosen to give a constant dosage volume of 0.3-0.4 ml/20 g body weight of mouse. The treated mice were exposed to UVA light source immediately after dosing for 4 hours and for 4 consecutive days. The mean light intensity in the UVA chamber was adjusted to 0.9-1.2 mW/cm^2. […] A phototoxic dose is one which causes ear erythema and oeadema.

[10] = Staphylococcus aureus, MRSA, MRSA 032
[11] = Streptococcus pneumoniae, FQ^R S. pneumoniae 718
[12] = read-out: MIC against MRSA 5027, initially
[13] = read-out: MIC against MRSA 5027 after 10 passages in drug containing medium
[14] = Enterococcus faecalis, ATCC29212, E. faecalis ATCC 29212
[15] = Escherichia coli, ATCC25922, E. coli ATCC 25922
[16] = Pseudomonas aeruginosa, P. aeruginosa 27853
[17] = S. sanguis ATCC 10556 (Viridans Streptococci group)
[18] = Staphylococcus aureus, ATCC 25923 / MSSA, MSSA ATCC 25923
[19] = Streptococcus pneumoniae, ATCC49619, S. pneumoniae ATCC 49619
[20] = Streptococcus mitis, Cipro^R S. mitis 938
[21] = Staphylococcus epidermidis, trovafloxacin-resistant methicillin-resistant S. epidermidis (MRSE) 110, 18 hrs at 37° C, read-out: MICs, Trova-Resist MRSE 110
[22] = vancomycin-resistant Enterococcus faecium (VRE) 336, 18 hrs at 37° C, read-out: MICs, VRE 336

Row | SMILES | MIC [1, 10] [µg/mL] | MIC [1, 11] [µg/mL] | MIC [2, 12] [µg/mL] | ED50 [3] [mg/kg] | Cytotoxic concentration, J 744 Macrophage [4] [µg/mL] | Cytotoxic concentration, V 79 CHL [5] [µg/mL] | MIC [6, 14] [µg/mL] | MIC [6, 15] [µg/mL] | MIC [6, 16] [µg/mL] | MIC [6, 17] [µg/mL] | MIC [6, 18] [µg/mL] | MIC [6, 19] [µg/mL] | MIC ([1]; Cipro^R S. sanguis 941) [µg/mL] | MIC [1, 20] [µg/mL] | MIC [7, 21] [µg/mL] | MIC [7, 22] [µg/mL] | further results
1 | COc1c(N2CCC(N)C(C)(C)C2)c(F)cc2c(=O)c(C(=O)O)cn(C3CC3)c12.Cl (racemic) [Compound 18, (±)-1-Cyclopropyl-6-fluoro-1,4-dihydro-8-methoxy-7-(4-amino-3,3-dimethyl-1-piperidinyl)-4-oxo-quinoline-3-carboxylic acid hydrochloride] | 0.8 | 0.8 | 0.4 | 30 | >1000 | >1000 | – | – | – | – | – | – | – | – | – | – | MIC [2, 13]: 0.4 µg/mL
2 | Cc1c(N2CCC(O)C(C)(C)C2)c(F)cc2c(=O)c(C(=O)O)cn(C3CC3)c12 (racemic) [Compound 95, (±)-1-Cyclopropyl-6-fluoro-8-methyl-7-(4-hydroxy-3,3-dimethyl-1-piperidinyl)-1,4-dihydro-4-oxo-quinoline-3-carboxylic acid] | 0.2 (≈ 0.515 µM) | 0.8 (≈ 2.06 µM) | – | – | >1000 | >1000 | 0.05 (≈ 0.129 µM) | 0.2 (≈ 0.515 µM) | 3.12 (≈ 8.03 µM) | 0.025 (≈ 0.0644 µM) | 0.003 (≈ 0.00772 µM) | 0.025 (≈ 0.0644 µM) | 0.4 (≈ 1.03 µM) | 0.4 (≈ 1.03 µM) | 0.4 (≈ 1.03 µM) | 3.12 (≈ 8.03 µM) | MICs, MRSA 5076 + efflux inhibitor reserpine ([8]; MRSA 5076 with efflux inhibitor reserpine): 0.2 µg/mL; MIC [8]: 0.003 µg/mL (≈ 0.00772 µM)
3 | Cc1c(N2CC[C@H](O)[C@H](C)C2)c(F)cc2c(=O)c(C(=O)O)cn(C3CC3)c12 (relative stereo) [Compound 93, cis-1-Cyclopropyl-6-fluoro-8-methyl-7-(4-hydroxy-3-methyl-1-piperidinyl)-1,4-dihydro-4-oxo-quinoline-3-carboxylic acid] | 0.2 (≈ 0.534 µM) | 0.8 (≈ 2.14 µM) | – | – | >1000 | >1000 | 0.05 (≈ 0.134 µM) | 0.2 (≈ 0.534 µM) | 3.12 (≈ 8.33 µM) | 0.05 (≈ 0.134 µM) | 0.003 (≈ 0.00801 µM) | 0.025 (≈ 0.0668 µM) | 0.4 (≈ 1.07 µM) | 0.4 (≈ 1.07 µM) | 0.4 (≈ 1.07 µM) | 3.12 (≈ 8.33 µM) | melting point: 206 to 210 °C
4 | Cc1c(N2CC[C@@H](O)[C@H](C)C2)c(F)cc2c(=O)c(C(=O)O)cn(C3CC3)c12 (relative stereo) [Compound 94, trans-1-Cyclopropyl-6-fluoro-8-methyl-7-(4-hydroxy-3-methyl-1-piperidinyl)-1,4-dihydro-4-oxo-quinoline-3-carboxylic acid] | 0.2 (≈ 0.534 µM) | 0.8 (≈ 2.14 µM) | – | – | >1000 | >1000 | 0.1 (≈ 0.267 µM) | 0.2 (≈ 0.534 µM) | 3.12 (≈ 8.33 µM) | 0.025 (≈ 0.0668 µM) | 0.003 (≈ 0.00801 µM) | 0.025 (≈ 0.0668 µM) | 0.4 (≈ 1.07 µM) | 0.4 (≈ 1.07 µM) | 0.4 (≈ 1.07 µM) | 3.12 (≈ 8.33 µM) | –
5 | Cc1c(N2CCC(N)C(C)(C)C2)c(F)cc2c(=O)c(C(=O)O)cn(C3CC3)c12.Cl (single isomer, unassigned; (-)) [Compound 110, (−)-1-Cyclopropyl-6-fluoro-1,4-dihydro-8-methyl-7-(4-amino-3,3-dimethyl-1-piperidinyl)-4-oxo-quinoline-3-carboxylic acid hydrochloride] | – | – | – | 20 | – | – | – | – | – | – | – | – | – | – | – | – | MICs ([6]; E. coli ATCC 25922, hydrochloride): 0.025 µg/mL; MICs ([6]; E. faecalis ATCC 29212, hydrochloride): 0.05 µg/mL; MICs ([6]; MSSA ATCC 25923): 0.025 µg/mL; MICs ([6]; S. pneumoniae ATCC 49619, hydrochloride): 0.025 µg/mL; MICs ([1]; Cipro^R S. sanguis 941, hydrochloride): 1.56 µg/mL; MIC [8]: 0.05 µg/mL; Cytotoxic concentration, J 744 Macrophage ([4]; hydrochloride): 1000 µg/mL; Cytotoxic concentration, V 79 CHL ([5]; hydrochloride): 250 µg/mL; melting point: 300 °C
6 | COc1c(N2C[C@@H]3CCCN[C@@H]3C2)c(F)cc2c(=O)c(C(=O)O)cn(C3CC3)c12 [Moxifloxacin, reference compound] | – | – | 0.4 (≈ 0.996 µM) | > 100 | – | – | 0.2 (≈ 0.498 µM) | 0.05 (≈ 0.125 µM) | – | 0.4 (≈ 0.996 µM) | 0.05 (≈ 0.125 µM) | 0.2 (≈ 0.498 µM) | – | – | – | – | –
7 | N[C@@H]1[C@H]2CN(c3nc4c(cc3F)c(=O)c(C(=O)O)cn4-c3ccc(F)cc3F)C[C@@H]12 [Trovafloxacin] | – | – | 0.4 (≈ 0.961 µM) | – | 500 | – | – | – | – | – | – | – | – | – | – | – | MIC [2, 13]: 50 µg/mL (≈ 120 µM)
8 | C[C@@H]1CN(c2c(F)c(N)c3c(=O)c(C(=O)O)cn(C4CC4)c3c2F)C[C@H](C)N1 [sparfloxacin] | – | – | – | – | – | – | – | – | – | – | – | – | – | – | – | – | phototoxic dose [9]: 25 mg/kg
